From patent US20140057311A1, “Device For High Throughput Investigations Of Multi-Cellular Interactions” (priority 2010, published 2014)

Test system: MDA-MB 231 human breast carcinoma cells
Assay: Tumor cell migration direction under interstitial flow in 3D collagen I gel
Assay type: cell-based
Details: Src kinase inhibited with PP2
Source text: Cell culture system design and verification of interstitial flow field. A microfluidic cell culture system to culture breast cancer cells (MDA-MB 231) in a 3D collagen I matrix and to subject these cells to a controlled level of interstitial flow was employed. The system consists of two channels separated by a region containing single cells suspended in collagen I gel (FIG. 16A). By applying a hydrostatic pressure gradient across the gel region, a consistent flow field is generated. FEM software was used to solve Brinkman's equation for flow through porous medium for our system geometry (FIG. 16B). […] From the bead tracking data, the hydraulic permeability of 2 mg/ml collagen I gel was determined to be 1.55×10-13 m2, similar to previously published values.
Interstitial flow induced a directional bias in cellular migration. […] To quantify the migration direction of cell populations, two metrics are presented. […] To determine directional bias of migration along streamlines, a “directional migration metric” was computed that scored cells with a +1 if they migrated in the direction of flow and a −1 if they migrated against the flow (FIG. 17E). […]
Cells were incubated overnight at 37° C. […] Devices were allowed to reach thermal equilibrium at 37° C. before imaging (see Supplementary Methods in SI Appendix for details on imaging and data quantification). […]

CC(C)(C)n1nc(-c2ccc(Cl)cc2)c2c(N)ncnc21 [PP2]
direction of cell migration under interstitial flow: cells migrated randomly, with no biased migration upstream or downstream
